Measured values published in ChEMBL document CHEMBL1143404, “New plasmid-mediated fluoroquinolone efflux pump, QepA, found in an Escherichia coli clinical isolate” (2007).
≈ marks a conversion by molar mass, not a printed value. Calls of active or inactive are those of the source. The calls are words filed in the database; no cut-off is given here.

Assays:
Escherichia coli [1] = test: Antimicrobial activity against multidrug-resistant Escherichia coli C316 pHPA containing mutated GyrA gene by agar dilution method; type: functional
Escherichia coli [2] = test: Antimicrobial activity against Escherichia coli KAM32 expressing deltaacrB ydhE hsd gene by agar dilution method; type: functional
Escherichia coli [3] = test: Antimicrobial activity against Escherichia coli KAM32 pHPA containing mutated GyrA gene by agar dilution method; type: functional
Escherichia coli [4] = test: Antimicrobial activity against Escherichia coli KAM32 pSTV28 containing chloramphenicol-resistant vector by agar dilution method; type: functional
Escherichia coli [5] = test: Antimicrobial activity against Escherichia coli KAM32 pSTVqepA containing qepA gene ligated to pSTV28 plasmid by agar dilution method; type: functional
Escherichia coli [6] = test: Antimicrobial activity against Escherichia coli KAM32 pSTVdeltaqepA containing disrupted qepA gene by agar dilution method; type: functional
Escherichia coli [7] = test: Ratio of MIC for Escherichia coli KAM32 pSTVqepA mutant to MIC for Escherichia coli KAM32 pSTV28 mutant; type: functional
[8] = molecular target: T1, Plasmid efflux fluoroquinolone (Escherichia coli) (UniProt A5H8A5); test: Inhibition of qepA-mediated drug efflux in Escherichia coli KAM32 assessed as increase in accumulation of Norfloxacin by fluorescence spectroscopy
T1 sequence (whole entry): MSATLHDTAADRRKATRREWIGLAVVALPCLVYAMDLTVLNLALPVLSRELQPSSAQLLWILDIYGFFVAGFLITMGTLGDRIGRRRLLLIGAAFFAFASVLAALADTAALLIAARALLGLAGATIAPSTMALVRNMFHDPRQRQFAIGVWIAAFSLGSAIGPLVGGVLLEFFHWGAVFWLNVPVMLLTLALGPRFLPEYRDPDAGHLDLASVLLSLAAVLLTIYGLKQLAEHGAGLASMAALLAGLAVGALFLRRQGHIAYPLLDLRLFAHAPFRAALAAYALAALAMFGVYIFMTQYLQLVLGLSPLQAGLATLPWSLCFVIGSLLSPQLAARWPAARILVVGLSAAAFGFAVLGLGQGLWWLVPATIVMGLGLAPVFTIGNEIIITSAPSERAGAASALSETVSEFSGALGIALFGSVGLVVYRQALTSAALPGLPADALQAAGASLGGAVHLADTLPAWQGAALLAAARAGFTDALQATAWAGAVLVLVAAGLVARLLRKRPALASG

SMILES | MIC (Escherichia coli [1]) [µg/mL] | MIC (Escherichia coli [2]) [µg/mL] | MIC (Escherichia coli [3]) [µg/mL] | MIC (Escherichia coli [4]) [µg/mL] | MIC (Escherichia coli [5]) [µg/mL] | MIC (Escherichia coli [6]) [µg/mL] | Ratio (Escherichia coli [7]) | Activity [8]
CCN1CCN(c2cc3c(cc2F)c(=O)c(C(=O)O)cn3C2CC2)CC1 [ENROFLOXACIN] | > 128 | 0.008 (≈ 0.0223 µM) | 0.25 (≈ 0.696 µM) | 0.008 (≈ 0.0223 µM) | 0.25 (≈ 0.696 µM) | 0.008 (≈ 0.0223 µM) | 32 | –
CCCCCCCCCCCCOS(=O)(=O)[O-].[Na+] [SODIUM LAURYL SULFATE] | – | 128 | 128 | 128 | 128 | > 128 | 1 | –
CN(C)c1ccc(C(=C2C=CC(=[N+](C)C)C=C2)c2ccc(N(C)C)cc2)cc1.[Cl-] [GENTIAN VIOLET] | 16 | 2 | 2 | 2 | 2 | 2 | 1 | –
C[C@H]1COc2c(C3(N)CC3)c(F)cc3c(=O)c(C(=O)O)cn1c23 [PAZUFLOXACIN] | 16 (≈ 50.3 µM) | 0.004 (≈ 0.0126 µM) | 0.016 (≈ 0.0503 µM) | 0.004 (≈ 0.0126 µM) | 0.016 (≈ 0.0503 µM) | 0.004 (≈ 0.0126 µM) | 4 | –
C[C@@H]1CN(c2c(F)c(N)c3c(=O)c(C(=O)O)cn(C4CC4)c3c2F)C[C@H](C)N1 [SPARFLOXACIN] | 16 (≈ 40.8 µM) | 0.001 (≈ 0.00255 µM) | 0.002 (≈ 0.0051 µM) | 0.001 (≈ 0.00255 µM) | 0.002 (≈ 0.0051 µM) | 0.001 (≈ 0.00255 µM) | 2 | –
CC[C@H]1OC(=O)[C@H](C)[C@@H](O[C@H]2C[C@@](C)(OC)[C@@H](O)[C@H](C)O2)[C@H](C)[C@@H](O[C@@H]2O[C@H](C)C[C@H](N(C)C)[C@H]2O)[C@](C)(O)C[C@@H](C)C(=O)[C@H](C)[C@@H](O)[C@]1(C)O [ERYTHROMYCIN] | > 128 | 2 (≈ 2.73 µM) | > 128 | 1 (≈ 1.36 µM) | 2 (≈ 2.73 µM) | 1 (≈ 1.36 µM) | 2 | –
COc1c(N2CCNC(C)C2)c(F)cc2c(=O)c(C(=O)O)cn(C3CC3)c12 (stereo not given) [GATIFLOXACIN] | 32 (≈ 85.2 µM) | 0.004 (≈ 0.0107 µM) | 0.016 (≈ 0.0426 µM) | 0.002 (≈ 0.00533 µM) | 0.016 (≈ 0.0426 µM) | 0.004 (≈ 0.0107 µM) | 8 | –
CC[n+]1c(-c2ccccc2)c2cc(N)ccc2c2ccc(N)cc21.[Br-] [HOMIDIUM BROMIDE] | > 128 | 4 | 8 | 4 | 8 | 4 | 2 | –
O=C(O)c1cn(C2CC2)c2cc(N3CCNCC3)c(F)cc2c1=O [CIPROFLOXACIN] | > 128 | – | 0.064 (≈ 0.193 µM) | – | – | – | – | –
C[C@H]1COc2c(N3CCN(C)CC3)c(F)cc3c(=O)c(C(=O)O)cn1c23.C[C@H]1COc2c(N3CCN(C)CC3)c(F)cc3c(=O)c(C(=O)O)cn1c23.O [LEVOFLOXACIN] | 32 | – | – | 0.004 | – | 0.004 | – | –
CC/N=c1\cc2oc3cc(NCC)c(C)cc3c(-c3ccccc3C(=O)OCC)c-2cc1C.Cl [RHODAMINE 6G HYDROCHLORIDE] | > 128 | 4 | 4 | 4 | 4 | 4 | 1 | –
CCn1cc(C(=O)O)c(=O)c2cc(F)c(N3CCNCC3)cc21 [NORFLOXACIN] | > 128 | 0.016 (≈ 0.0501 µM) | 0.25 (≈ 0.783 µM) | 0.016 (≈ 0.0501 µM) | 1 (≈ 3.13 µM) | 0.016 (≈ 0.0501 µM) | 64 | –
C[C@H](CCC(=O)O)[C@H]1CC[C@H]2[C@@H]3CC[C@@H]4C[C@H](O)CC[C@]4(C)[C@H]3C[C@H](O)[C@]12C [DEOXYCHOLIC ACID] | > 1020 | 1020 (≈ 2610 µM) | 512 (≈ 1300 µM) | 512 (≈ 1300 µM) | 512 (≈ 1300 µM) | 512 (≈ 1300 µM) | 1 | –
C[n+]1c2cc(N)ccc2cc2ccc(N)cc21.[Cl-] [EUFLAVINE] | > 128 | 2 | 4 | 2 | 4 | 2 | 2 | –
COc1c(N2C[C@@H]3CCCN[C@@H]3C2)c(F)cc2c(=O)c(C(=O)O)cn(C3CC3)c12 [MOXIFLOXACIN] | 32 (≈ 79.7 µM) | 0.002 (≈ 0.00498 µM) | 0.016 (≈ 0.0399 µM) | 0.002 (≈ 0.00498 µM) | 0.016 (≈ 0.0399 µM) | 0.002 (≈ 0.00498 µM) | 8 | –
CCn1cc(C(=O)O)c(=O)c2cc(F)c(N3CCNC(C)C3)c(F)c21 (stereo not given) [LOMEFLOXACIN] | > 128 | 0.032 (≈ 0.0911 µM) | 0.064 (≈ 0.182 µM) | 0.032 (≈ 0.0911 µM) | 0.064 (≈ 0.182 µM) | 0.032 (≈ 0.0911 µM) | 2 | –
CN(C)[C@@H]1C(O)=C(C(N)=O)C(=O)[C@@]2(O)C(O)=C3C(=O)c4c(O)cccc4[C@@](C)(O)[C@H]3C[C@@H]12 [TETRACYCLINE] | > 128 | 0.25 (≈ 0.563 µM) | 0.25 (≈ 0.563 µM) | 0.25 (≈ 0.563 µM) | 0.25 (≈ 0.563 µM) | 0.125 (≈ 0.281 µM) | 1 | –
CCn1cc(C(=O)O)c(=O)c2ccc(C)nc21 [NALIDIXIC ACID] | > 128 | 1 (≈ 4.31 µM) | 1 (≈ 4.31 µM) | 1 (≈ 4.31 µM) | 2 (≈ 8.61 µM) | 1 (≈ 4.31 µM) | 2 | –
NC[C@H]1O[C@H](O[C@H]2[C@H](O)[C@@H](O[C@H]3O[C@H](CO)[C@@H](O)[C@H](N)[C@H]3O)[C@H](N)C[C@@H]2N)[C@H](O)[C@@H](O)[C@@H]1O [KANAMYCIN] | > 128 | 1 (≈ 2.06 µM) | > 128 | 1 (≈ 2.06 µM) | 1 (≈ 2.06 µM) | 128 (≈ 264 µM) | 1 | –
N#CC(C#N)=NNc1cccc(Cl)c1 [CARBONYL CYANIDE M-CHLOROPHENYLHYDRAZONE] | 16 (≈ 78.2 µM) | 16 (≈ 78.2 µM) | 16 (≈ 78.2 µM) | 16 (≈ 78.2 µM) | 16 (≈ 78.2 µM) | 16 (≈ 78.2 µM) | 1 | Active
CC1(C)S[C@@H]2[C@H](NC(=O)[C@H](N)c3ccccc3)C(=O)N2[C@H]1C(=O)O [AMPICILLIN] | > 128 | – | > 128 | – | – | – | – | –
NC1CCN(c2nc3c(cc2F)c(=O)c(C(=O)O)cn3-c2ccc(F)cc2F)C1 (stereo not given) [TOSUFLOXACIN] | > 128 | 0.002 (≈ 0.00495 µM) | 0.032 (≈ 0.0791 µM) | 0.002 (≈ 0.00495 µM) | 0.032 (≈ 0.0791 µM) | 0.002 (≈ 0.00495 µM) | 16 | –
